Entries after “also recorded” stand apart in the source; their conditions may differ.
Tests used:
[1] = test system: rats (uterus); test: Hysterotrimus and cardiac activity by intravenous injection to rats
[2] = test system: estrogen receptor; test: Competitive receptor assay with 3H-estradiol in rabbit uterus; format: binding; settings: for binding to the estrogen receptor: in accordance with the method of Example 1
Procedure: Binding function of estradiol and the PGFE to each uterus of rabbit were measured by the competitive receptor assay. Estradiol labelled by tritium (^3 H) was incubated with uterus of rabbit to bind it and then, estradiol or the PGFE was added to the system to measure the amount of free ^3 H-estradiol which was replaced by the added estradiol or the PGFE.

[3] = test system: ICR-JCL pregnant mice; test: Abortion test, intravenous injection once a day during 4 days (Table 1); format: in vivo; settings: i.v. once a day
Procedure: The abortion was studied with ICR-JCL pregnant mice by the continuous administration of the drug during 4 days and the side-effect in the administration was also examined. After 0.2 ml of 50% ethanol-saline solution containing the PGFE at dose 10γ and 30γ/mouse or PGF2 α at dose 15γ/mouse(equimole of PGFE 30γ) was intravenously injected to the mice once a day during 4 days, their breedings were continued to confirm the abortion of the group administrated with the drugs until the partus of the control group administrated with only ethanol saline solution.

[4] = test system: ICR-JCL pregnant mice; test: Efficiency of abortion, summary in words of the tests in pregnant mice; format: in vivo; settings: for abortion (in words): continuous administration during 4 days; for abortion effect in comparison with PGF2 α: suitable administrations and doses; for efficiency of abortion compared with PGF2 α: intravenous and subcutaneous, 4 days
Procedure: The efficiency of abortion of PGFE,PGFE-4AC and PGFE-3AC are tested as pharmacological effects in suitable administrations and doses by using ICR-JCL pregnant mice.
(§1) The continuous administrations were applied to ICR-JCL mice of the sixth day of pregnancy (5 mice as one group) to examine the efficiency of the abortion obtained by the drugs of this invention in comparison with that of PGF2 α. After 0.2 ml of 5% ethanol-saline solution containing the PGFE-3AC, the PGFE-4AC or PGF2 α was given to the mice once a day during 4 days by intravenous injection and subcutaneous injection at some dose, their breeding were continued to confirm the abortion of the group administrated with the drugs until the partus of the control group administrated with only ethanol saline solution.

[5] = test system: ICR-JCL pregnant mice; test: Side-effect test: tachycardia, respirogram and electrocardiogram by biophysiograph; format: in vivo; settings: for tachycardia, respirogram and electrocardiogram compared with control: intravenous; for abnormal condition in tachycardia, respirogram and electrocardiogram: mice in pregnancy, before and after administration
Procedure: The tachycardia, respirogram and electrocardiogram of mice in pregnancy before and after the administration of PGF2 α, PGFE, PGFE-4AC and PGFE-3AC are tested by a biophysiograph 180-4(4ch) (manufactured by San-ei Sokuki K.K.).
(§2) Acute toxicity (LD50) and abnormal tachycardia, respirogram and electrocardiogram by a biophysiograph were tested.
Electrocardiogram was measured by a biophysiograph 180-4 (4 ch) (manufactured by San-ei Sokuki K.K.) for ICR-JCL pregnant mice (6th day) at 3 minutes after the administration of each sample.
In the test, 0.2 ml of 50% ethanol-saline solution was intravenously injected to the mice at a dose of 30γ per mouse. As the reference, the PGF2 α was also used as the sample (a dose of 15γ per mouse).
The results of the measurements are shown in FIGS. 2 to 5 wherein mV is given on ordinate and time (second) is given on abscissas and the chart speed was 250 mm/sec.

[6] = test system: ICR-JCL mice of the sixth day of pregnancy; test: Test of abortion by subcutaneous injection, 4 days (Table 2); format: in vivo; settings: s.c. once a day
Procedure: as §1, with “[…],” for “PGFE-3AC,”, “PGFE-4AC” left out

[7] = test system: ICR-JCL mice of the sixth day of pregnancy; test: Test of abortion by intravenous injection, 4 days (Table 3); format: in vivo; settings: i.v. once a day
Procedure: as §1, with “[…],” for “PGFE-3AC,”, “PGFE-4AC” left out

[8] = test system: ICR-JCL female mice; test: Acute toxicity (LD50), intravenous injection; format: in vivo; settings: for survival of mice (acute toxicity) / abnormality observed: 400 mg/kg; for survival of mice (acute toxicity): 10 mice; for LD50 (in words): 7 days, Litchfield-Wilcoxon graph method
Procedure: Acute toxicities (LD50) of PGFE,PGFE-4AC and PGFE-3A are measured by intravenous injections at a dose of 400 mg/kg to ten of ICR-JCL female mice (4 weeks age).
as §2
In the measurement of LD50, 10ICR-JCL female mice (4 week age) were used as one group. 0.2 ml of 50% ethanol-saline solution containing the drug of this invention was intravenously injected to the mice at several doses during 7 days to obtain their value of LD50 by Litchfield-Wilcoxon graph method.

[9] = in accordance with the method of Example 1
[10] = 30γ/mouse, 3 minutes after administration

| Compound | hysterotrimus [1, 9] | binding to the estrogen receptor [2] | abnormal condition in tachycardia, respirogram and electrocardiogram [5] | Efficiency of abortion ([6]; 15 .tau./mouse) [%] | Result of parturition (5 mice in group) ([6]; 15 .tau./mouse) | Efficiency of abortion ([6]; 30 .tau./mouse) [%] | Result of parturition (5 mice in group) ([6]; 30 .tau./mouse) | Efficiency of abortion ([7]; 2.5 .tau./mouse) [%] | Result of parturition (5 mice in group) ([7]; 2.5 .tau./mouse) | Efficiency of abortion ([7]; 5.0 .tau./mouse) [%] | Result of parturition (5 mice in group) ([7]; 5.0 .tau./mouse) | survival of mice (acute toxicity) [8] | abortion (in words) ([4]; same dose as PGF2 α or less) | abortion effect in comparison with PGF2 α [4] | abnormality observed [8] | LD50 (in words) [8] | efficiency of abortion compared with PGF2 α [4] | tachycardia, respirogram and electrocardiogram compared with control [5, 10] | also measured |
| --- | --- | --- | --- | --- | --- | --- | --- | --- | --- | --- | --- | --- | --- | --- | --- | --- | --- | --- | --- |
| CCCCC[C@H](O)/C=C/[C@@H]1[C@@H](C/C=C\CCCC(=O)OC2CC[C@H]3[C@@H]4CCc5cc(O)ccc5[C@H]4CC[C@]23C)[C@@H](O)C[C@H]1O (stereo partly shown) [Example 2] | cause hysterotrimus | bonded to the estrogen receptor |  |  |  |  |  |  |  |  |  |  |  |  |  |  |  |  |  |
| CCCCC[C@H](O)/C=C/[C@H]1[C@H](O)CC(=O)[C@@H]1C/C=C\CCCC(=O)OCC(=O)OCC(=O)[C@H]1CC[C@H]2[C@@H]3CCC4=CC(=O)CC[C@]4(C)[C@H]3CC[C@]12C [PGE2 P] | cause hysterotrimus | bonded to the estrogen receptor |  |  |  |  |  |  |  |  |  |  |  |  |  |  |  |  |  |
| CCCCC[C@H](O)/C=C/[C@@H]1[C@@H](C/C=C\CCCC(=O)O)[C@@H](O)C[C@H]1O [PGF2 α, 9α,11α,15α-trihydroxy-5(cis)-13(trans)-prostadienoic acid, reference compound] |  |  | abnormal conditions are clearly observed | 0 | 5 | 20 | 4 | 0 | 5 | 0 | 5 |  |  |  |  |  |  |  | Effect of abortion ([3]; 15 γ/mouse): 0%; Result of parturition (5 mice in group) ([3]; 15 γ/mouse): 5; abortion (in words) ([4]; 15α (4.24×10^-8 moles)/mouse): The abortion is incomplete; cardiac activity ([1]; 5γ, intravenous, rats): cardiac stop was caused; hysterotrimus ([1]; 5γ, intravenous, rats): gaved of the hysterotrimus; tachycardia, respirogram and electrocardiogram compared with control ([5]; 15γ/mouse, 3 minutes after administration (FIG. 3)): abnormally different from those of the control; Efficiency of abortion ([7]; 15.0 .tau./mouse): 20%; Result of parturition (5 mice in group) ([7]; 15.0 .tau./mouse): 4 |
| CCCCC[C@H](O)/C=C/[C@@H]1[C@@H](C/C=C\CCCC(=O)OCC(=O)O[C@H]2CC[C@H]3[C@@H]4CCc5cc(O)ccc5[C@H]4CC[C@]23C)[C@@H](O)C[C@H]1O [PGFE, estra-1,3,5(10)-triene-3-hydroxy-17-oxycarbonylmethyl-9α,11α,15α-trihydroxy-5(cis)-13(trans)prostadienoate] |  |  | any abnormal condition is not observed |  |  |  |  |  |  |  |  | All of mice (10) are survived | satisfied results are obtained | greatly superior effect |  |  |  |  | Effect of abortion ([3]; 10 γ/mouse): 100%; Result of parturition (5 mice in group) ([3]; 10 γ/mouse): 0; Effect of abortion ([3]; 30 γ/mouse): 100%; Result of parturition (5 mice in group) ([3]; 30 γ/mouse): 0; hysterotrimus ([1]; 5 to 50γ (printed "5 L to 50γ"), intravenous, rats): gaved of the hysterotrimus; cardiac activity ([1]; 50γ, intravenous, rats): the cardiac activity was in the normal condition; beginning of hysterotrimus in comparison with PGF2 α ([1]; intravenous, rats): some delay in the beginning of hystrotrimus; side-effect ([1]; up to 50γ, intravenous, rats): no side-effect was found; binding function to estrogen receptor ([2]; uterus of rabbit, displacement of 3H-estradiol, FIG. 1): has the binding function to estrogen receptor as the same with the estradiol itself |
| CCCCC[C@@H](/C=C/[C@@H]1[C@@H](C/C=C\CCCC(=O)OCC(=O)O[C@H]2CC[C@H]3[C@@H]4CCc5cc(O)ccc5[C@H]4CC[C@]23C)[C@@H](OC(C)=O)C[C@H]1OC(C)=O)OC(C)=O [PGFE-3AC, estra-1,3,5(10)-triene-3-hydroxy-17-oxycarbonylmethyl-9α,11α,15α-triacetoxy-5(cis)-13(trans)-prostadienoate] |  |  | any abnormal condition is not observed | 100 | 0 |  |  | 60 | 2 | 100 | 0 | all of the mice were survived | satisfied results are obtained | greatly superior effect | any abnormality was not observed | too high to be impossible to measure directly | remarkably superior | substantially the same with those of the control | survival of mice (acute toxicity) ([8]; listed as PGFE-3A): All of mice (10) are survived; Efficiency of abortion ([7]; 1.0 .tau./mouse): 20%; Result of parturition (5 mice in group) ([7]; 1.0 .tau./mouse): 4 |
| CCCCC[C@@H](/C=C/[C@@H]1[C@@H](C/C=C\CCCC(=O)OCC(=O)O[C@H]2CC[C@H]3[C@@H]4CCc5cc(OC(C)=O)ccc5[C@H]4CC[C@]23C)[C@@H](OC(C)=O)C[C@H]1OC(C)=O)OC(C)=O [PGFE-4AC, estra-1,3,5(10)-triene-3-acetoxy-17-oxycarbonylmethyl-9α,11α,15α-triacetoxy-5(cis)-13(trans)prostadienoate] |  |  | any abnormal condition is not observed | 100 | 0 | 100 | 0 | 40 | 3 | 100 | 0 | all of the mice were survived; also recorded: All of mice (10) are survived | satisfied results are obtained | greatly superior effect | any abnormality was not observed | too high to be impossible to measure directly | remarkably superior | substantially the same with those of the control |  |
